Reference: patent US12303570B2, “Compositions and methods for assessing eye vasculature” (MediBeacon Inc., priority 2015, dated 2025)
Counter-ions that a name gives are not always drawn.

How the values were obtained:
[1] = UV/vis absorption and fluorescence of pyrazine dyes; format: physicochemical
[2] = cited from earlier work
serum protein = settings: immediately upon intra-venous injection; cited from earlier work
[3] = 100 μM (Example 4 prints 100 μm)

Structure (SMILES) | UV/vis λabs ([1]; 100 μM in PBS) [nm] | Fluorescence λem ([1]; 100 nM) [nm] | Fluorescence λex ([1]; 100 nM) [nm] | further results
Nc1nc(C(=O)N[C@H](CO)C(=O)O)c(N)nc1C(=O)N[C@H](CO)C(=O)O [Example 2, 3,6-diamino-N^2,N^5-bis(D-serine)-pyrazine-2,5-dicarboxamide] | 434 | – | – | light absorption maximum [1]: 445 nm; light emission maximum [1]: 560 nm; Fluorescence λem ([1]; concentration not given): 559 nm; Fluorescence λex ([1]; concentration not given): 449 nm
Nc1nc(C(=O)N[C@@H](CO)C(=O)O)c(N)nc1C(=O)N[C@@H](CO)C(=O)O [Example 3, 3,6-diamino-N^2,N^5-bis(L-serine)-pyrazine-2,5-dicarboxamide] | – | – | – | light absorption maximum [1]: 445 nm; light emission maximum [1]: 560 nm
COCCN(CCOC)C(=O)c1nc(N)c(C(=O)N(CCOC)CCOC)nc1N [Example 4, 3,6-diamino-N^2,N^2,N^5,N^5-tetrakis(2-methoxyethyl) pyrazine-2,5-dicarboxamide] | 394 | – | – | Fluorescence λex [1, 3]: 394 nm; Fluorescence λem ([1]; 100 μm): 550 nm
Nc1nc(C(=O)NCC(O)CO)c(N)nc1C(=O)NCC(O)CO (stereo not shown) [Example 5, 3,6-diamino-N^2,N^5-bis (2,3-dihydroxypropyl) pyrazine-2,5-dicarboxamide] | – | – | – | UV/vis λabs ([1]; 100 μM in H2O): 432 nm; Fluorescence λem ([1]; concentration not given): 558 nm; Fluorescence λex ([1]; concentration not given): 432 nm
COCCN(CCOC)C(=O)c1nc(N(CCOC)CCOC)c(C(=O)N(CCOC)CCOC)nc1N(CCOC)CCOC [Example 6] | 434 | – | – | Fluorescence λem ([1]; concentration not given): 559 nm; Fluorescence λex ([1]; concentration not given): 449 nm
NCCNC(=O)c1nc(N)c(C(=O)NCCN)nc1N [Example 7, 3,6-diamino-N^2,N^5-bis(2-aminoethyl)pyrazine-2,5-dicarboxamide Bis TFA Salt] | 435 | 562 | 449 | –
Nc1nc(C(=O)N[C@H](CC(=O)O)C(=O)O)c(N)nc1C(=O)N[C@H](CC(=O)O)C(=O)O [Example 8, 3,6-diamino-N^2,N^5-bis(D-aspartate)-pyrazine-2,5-dicarboxamide] | 433 | 558 | 449 | –
COCCOCCOCCOCCC(=O)NCCNC(=O)c1nc(N)c(C(=O)NCCNC(=O)CCOCCOCCOCCOC)nc1N [Example 9, 3,6-diamino-N^2,N^5-bis(14-oxo-2,5,8,11-tetraoxa-15-azaheptadecan-17-yl) pyrazine-2,5-dicarboxamide] | 437 | 559 | 437 | –
COCCOCCOCCOCCOCCOCCOCCOCCC(=O)NCCNC(=O)c1nc(N)c(C(=O)NCCNC(=O)CCOCCOCCOCCOCCOCCOCCOCCOC)nc1N [Example 10, 3,6-diamino-N^2,N^5-bis(26-oxo-2,5,8,11,14,17,20,23-octaoxa-27-azanonacosan-29-yl)pyrazine-2,5-dicarboxamide] | 438 | 560 | 438 | –
COCCOCCOCCOCCOCCOCCOCCOCCOCCOCCOCCOCCC(=O)NCCNC(=O)c1nc(N)c(C(=O)NCCNC(=O)CCOCCOCCOCCOCCOCCOCCOCCOCCOCCOCCOCCOC)nc1N [Example 11, 3,6-diamino-N^2,N^5-bis(38-oxo-2,5,8,11,14,17,20,23,26,29,32,35-dodecaoxa-39-azahentetracontan-41-y) pyrazine-2,5-dicarboxamide] | 449 | 559 | 449 | –
COCCN(CCOC)c1nc(C(=O)N[C@H](CC(=O)O)C(=O)O)c(N2CCOCC2)nc1C#N [Example 13, (R)-2-(6-(bis(2-methoxyethyl)amino)-5-cyano-3-morpholinopyrazine-2-carboxamido)succinic Acid] | 438 | – | – | Fluorescence λem ([1]; 100 μM): 570 nm; Fluorescence λex [1, 3]: 449 nm
O=C1OC2(c3ccc(O)cc3Oc3cc(O)ccc32)c2ccccc21 [Sodium fluorescein] | – | – | – | lipid solubility [2]: relatively high; converted to non-fluorescent serum protein bound molecule (serum protein): 93%
O=C1OC2(c3ccc(O)cc3Oc3cc(O[C@@H]4O[C@H](C(=O)O)[C@@H](O)[C@H](O)[C@H]4O)ccc32)c2ccccc21 (stereo partly shown) [fluorescein glucuronide] | – | – | – | fluorescent yield relative to fluorescein ([2]; metabolite versus parent): 5%
